Legend:
[1] = Ratio of drug uptake in medulla to cerebellum in anesthetized cynomolgus monkey after 12.5 mins postinjection; format: ADME, organism-based, Macaca fascicularis; settings: in vivo
[2] = Ratio of drug uptake in medulla to cerebellum in anesthetized cynomolgus monkey after 85 mins postinjection; format: ADME, organism-based, Macaca fascicularis; settings: in vivo
[3] = Ratio of drug uptake in medulla to cerebellum in anesthetized cynomolgus monkey after 155 mins postinjection; format: ADME, organism-based, Macaca fascicularis; settings: in vivo
[4] = Ratio of drug uptake in medulla to cerebellum in anesthetized cynomolgus monkey after 185 mins postinjection; format: ADME, organism-based, Macaca fascicularis; settings: in vivo
[5] = Drug uptake in anesthetized cynomolgus monkey brain occipital lobe after 18.5 mins postinjection; format: ADME, organism-based, Macaca fascicularis; settings: in vivo
[6] = Drug uptake in anesthetized cynomolgus monkey brain occipital lobe after 27.5 mins postinjection; format: ADME, organism-based, Macaca fascicularis; settings: in vivo
[7] = Drug uptake in anesthetized cynomolgus monkey brain occipital lobe after 55 mins postinjection; format: ADME, organism-based, Macaca fascicularis; settings: in vivo
[8] = Drug uptake in anesthetized cynomolgus monkey brain occipital lobe after 135 mins postinjection; format: ADME, organism-based, Macaca fascicularis; settings: in vivo, 2.25 h
[9] = Drug uptake in anesthetized cynomolgus monkey brain occipital lobe after 145 mins postinjection; format: ADME, organism-based, Macaca fascicularis; settings: in vivo
[10] = Drug uptake in anesthetized cynomolgus monkey brain occipital lobe after 215 mins postinjection; format: ADME, organism-based, Macaca fascicularis; settings: in vivo
[11] = Drug uptake in anesthetized cynomolgus monkey brain frontal lobe after 9.5 mins postinjection; format: ADME, organism-based, Macaca fascicularis; settings: in vivo
[12] = Drug uptake in anesthetized cynomolgus monkey brain frontal lobe after 15.5 mins postinjection; format: ADME, organism-based, Macaca fascicularis; settings: in vivo
[13] = Drug uptake in anesthetized cynomolgus monkey brain frontal lobe after 22.5 mins postinjection; format: ADME, organism-based, Macaca fascicularis; settings: in vivo, 0.375 h
[14] = Drug uptake in anesthetized cynomolgus monkey brain frontal lobe after 45 mins postinjection; format: ADME, organism-based, Macaca fascicularis; settings: in vivo, 0.75 h
[15] = Drug uptake in anesthetized cynomolgus monkey brain frontal lobe after 115 mins postinjection; format: ADME, organism-based, Macaca fascicularis; settings: in vivo
[16] = Drug uptake in anesthetized cynomolgus monkey brain frontal lobe after 145 mins postinjection; format: ADME, organism-based, Macaca fascicularis; settings: in vivo
[17] = Ratio of drug uptake in pons to cerebellum in anesthetized cynomolgus monkey after 1.5 mins postinjection; format: ADME, organism-based, Macaca fascicularis; settings: in vivo, 0.025 h
Putamen [18] = assay: Drug uptake in anesthetized cynomolgus monkey brain putamen after 175 mins postinjection; format: ADME, organism-based, Macaca fascicularis; settings: in vivo
Putamen [19] = assay: Drug uptake in anesthetized cynomolgus monkey brain putamen after 225 mins postinjection; format: ADME, organism-based, Macaca fascicularis; settings: in vivo, 3.75 h
[20] = Ratio of drug uptake in frontal lobe to cerebellum in anesthetized cynomolgus monkey after 3.5 mins postinjection; format: ADME, organism-based, Macaca fascicularis; settings: in vivo
[21] = Ratio of drug uptake in frontal lobe to cerebellum in anesthetized cynomolgus monkey after 75 mins postinjection; format: ADME, organism-based, Macaca fascicularis; settings: in vivo, 1.25 h
[22] = Ratio of drug uptake in frontal lobe to cerebellum in anesthetized cynomolgus monkey after 125 mins postinjection; format: ADME, organism-based, Macaca fascicularis; settings: in vivo
[23] = Ratio of drug uptake in frontal lobe to cerebellum in anesthetized cynomolgus monkey after 145 mins postinjection; format: ADME, organism-based, Macaca fascicularis; settings: in vivo
Midbrain [24] = assay: Drug uptake in anesthetized cynomolgus monkey brain midbrain after 135 mins postinjection; format: ADME, organism-based, Macaca fascicularis; settings: in vivo, 2.25 h
Midbrain [25] = assay: Drug uptake in anesthetized cynomolgus monkey brain midbrain after 215 mins postinjection; format: ADME, organism-based, Macaca fascicularis; settings: in vivo
Pons [26] = assay: Drug uptake in anesthetized cynomolgus monkey brain pons after 45 mins postinjection; format: ADME, organism-based, Macaca fascicularis; settings: in vivo, 0.75 h
Pons [27] = assay: Drug uptake in anesthetized cynomolgus monkey brain pons after 75 mins postinjection; format: ADME, organism-based, Macaca fascicularis; settings: in vivo, 1.25 h
[28] = Drug uptake in anesthetized cynomolgus monkey brain occipital lobe after 205 mins postinjection; format: ADME, organism-based, Macaca fascicularis; settings: in vivo
[29] = Drug uptake in anesthetized cynomolgus monkey brain frontal lobe after 195 mins postinjection; format: ADME, organism-based, Macaca fascicularis; settings: in vivo, 3.25 h
[30] = Ratio of drug uptake in caudate to cerebellum in anesthetized cynomolgus monkey after 135 mins postinjection; format: ADME, organism-based, Macaca fascicularis; settings: in vivo, 2.25 h
Pons [31] = assay: Drug uptake in anesthetized cynomolgus monkey brain pons after 125 mins postinjection; format: ADME, organism-based, Macaca fascicularis; settings: in vivo
Pons [32] = assay: Drug uptake in anesthetized cynomolgus monkey brain pons after 135 mins postinjection; format: ADME, organism-based, Macaca fascicularis; settings: in vivo, 2.25 h
Pons [33] = assay: Drug uptake in anesthetized cynomolgus monkey brain pons after 235 mins postinjection; format: ADME, organism-based, Macaca fascicularis; settings: in vivo
Medulla [34] = assay: Drug uptake in anesthetized cynomolgus monkey brain medulla after 55 mins postinjection; format: ADME, organism-based, Macaca fascicularis; settings: in vivo
[35] = Ratio of drug uptake in putamen to cerebellum in anesthetized cynomolgus monkey after 0.5 mins postinjection; format: ADME, organism-based, Macaca fascicularis; settings: in vivo
Medulla [36] = assay: Drug uptake in anesthetized cynomolgus monkey brain medulla after 145 mins postinjection; format: ADME, organism-based, Macaca fascicularis; settings: in vivo
[37] = Octanol-water partition coefficient, log P at pH 7.4 by shake-flask method; format: physicochemical
[38] = Ratio of drug uptake in putamen to cerebellum in anesthetized cynomolgus monkey after 155 mins postinjection; format: ADME, organism-based, Macaca fascicularis; settings: in vivo
[39] = Drug uptake in anesthetized cynomolgus monkey brain cerebellum after 2.5 mins postinjection; format: ADME, organism-based, Macaca fascicularis; settings: in vivo
[40] = Drug uptake in anesthetized cynomolgus monkey brain cerebellum after 4.5 mins postinjection; format: ADME, organism-based, Macaca fascicularis; settings: in vivo, 0.075 h
[41] = Drug uptake in anesthetized cynomolgus monkey brain cerebellum after 18.5 mins postinjection; format: ADME, organism-based, Macaca fascicularis; settings: in vivo
[42] = Drug uptake in anesthetized cynomolgus monkey brain cerebellum after 65 mins postinjection; format: ADME, organism-based, Macaca fascicularis; settings: in vivo
[43] = Drug uptake in anesthetized cynomolgus monkey brain cerebellum after 75 mins postinjection; format: ADME, organism-based, Macaca fascicularis; settings: in vivo, 1.25 h
[44] = Drug uptake in anesthetized cynomolgus monkey brain cerebellum after 85 mins postinjection; format: ADME, organism-based, Macaca fascicularis; settings: in vivo
[45] = Drug uptake in anesthetized cynomolgus monkey brain cerebellum after 165 mins postinjection; format: ADME, organism-based, Macaca fascicularis; settings: in vivo, 2.75 h
[46] = Drug uptake in anesthetized cynomolgus monkey brain cerebellum after 175 mins postinjection; format: ADME, organism-based, Macaca fascicularis; settings: in vivo
[47] = Ratio of drug uptake in thalamus to cerebellum in anesthetized cynomolgus monkey after 9.5 mins postinjection; format: ADME, organism-based, Macaca fascicularis; settings: in vivo
Caudate [48] = assay: Drug uptake in anesthetized cynomolgus monkey brain caudate after 4.5 mins postinjection; format: ADME, organism-based, Macaca fascicularis, Caudate nucleus; settings: in vivo, 0.075 h
Caudate [49] = assay: Drug uptake in anesthetized cynomolgus monkey brain caudate after 27.5 mins postinjection; format: ADME, organism-based, Macaca fascicularis, Caudate nucleus; settings: in vivo
Caudate [50] = assay: Drug uptake in anesthetized cynomolgus monkey brain caudate after 35 mins postinjection; format: ADME, organism-based, Macaca fascicularis, Caudate nucleus; settings: in vivo
Caudate [51] = assay: Drug uptake in anesthetized cynomolgus monkey brain caudate after 75 mins postinjection; format: ADME, organism-based, Macaca fascicularis, Caudate nucleus; settings: in vivo, 1.25 h
Caudate [52] = assay: Drug uptake in anesthetized cynomolgus monkey brain caudate after 125 mins postinjection; format: ADME, organism-based, Macaca fascicularis, Caudate nucleus; settings: in vivo
Putamen [53] = assay: Drug uptake in anesthetized cynomolgus monkey brain putamen after 1.5 mins postinjection; format: ADME, organism-based, Macaca fascicularis; settings: in vivo, 0.025 h
Putamen [54] = assay: Drug uptake in anesthetized cynomolgus monkey brain putamen after 2.5 mins postinjection; format: ADME, organism-based, Macaca fascicularis; settings: in vivo
[55] = Ratio of drug uptake in occipital lobe to cerebellum in anesthetized cynomolgus monkey after 4.5 mins postinjection; format: ADME, organism-based, Macaca fascicularis; settings: in vivo, 0.075 h
Thalamus [56] = assay: Drug uptake in anesthetized cynomolgus monkey brain thalamus after 22.5 mins postinjection; format: ADME, organism-based, Macaca fascicularis; set-up: unit not given here; settings: in vivo, 0.375 h
Putamen [57] = assay: Drug uptake in anesthetized cynomolgus monkey brain putamen after 12.5 mins postinjection; format: ADME, organism-based, Macaca fascicularis; set-up: unit not given here; settings: in vivo
Putamen [58] = assay: Drug uptake in anesthetized cynomolgus monkey brain putamen after 65 mins postinjection; format: ADME, organism-based, Macaca fascicularis; set-up: unit not given here; settings: in vivo
Putamen [59] = assay: Drug uptake in anesthetized cynomolgus monkey brain putamen after 75 mins postinjection; format: ADME, organism-based, Macaca fascicularis; set-up: unit not given here; settings: in vivo, 1.25 h
Thalamus [60] = assay: Drug uptake in anesthetized cynomolgus monkey brain thalamus after 75 mins postinjection; format: ADME, organism-based, Macaca fascicularis; set-up: unit not given here; settings: in vivo, 1.25 h
Thalamus [61] = assay: Drug uptake in anesthetized cynomolgus monkey brain thalamus after 145 mins postinjection; format: ADME, organism-based, Macaca fascicularis; set-up: unit not given here; settings: in vivo
Thalamus [62] = assay: Drug uptake in anesthetized cynomolgus monkey brain thalamus after 235 mins postinjection; format: ADME, organism-based, Macaca fascicularis; set-up: unit not given here; settings: in vivo
Midbrain [63] = assay: Drug uptake in anesthetized cynomolgus monkey brain midbrain after 15.5 mins postinjection; format: ADME, organism-based, Macaca fascicularis; set-up: unit not given here; settings: in vivo
Midbrain [64] = assay: Drug uptake in anesthetized cynomolgus monkey brain midbrain after 35 mins postinjection; format: ADME, organism-based, Macaca fascicularis; set-up: unit not given here; settings: in vivo
Midbrain [65] = assay: Drug uptake in anesthetized cynomolgus monkey brain midbrain after 95 mins postinjection; format: ADME, organism-based, Macaca fascicularis; set-up: unit not given here; settings: in vivo
Midbrain [66] = assay: Drug uptake in anesthetized cynomolgus monkey brain midbrain after 105 mins postinjection; format: ADME, organism-based, Macaca fascicularis; set-up: unit not given here; settings: in vivo, 1.75 h
[67] = Ratio of drug uptake in midbrain to cerebellum in anesthetized cynomolgus monkey after 85 mins postinjection; format: ADME, organism-based, Macaca fascicularis; settings: in vivo

Work on `O=C(OCCC[18F])C1C2CCC(CC1c1cccc(/C=C\I)c1)N2` (configuration not stated) yielded a Ratio [1] of 1, a Ratio [2] of 1.3 and a Ratio [3] of 1.8. For the same compound, the Ratio [4] was 1.8, the Drug uptake [5] was 3.85 and the Drug uptake [6] was 4. It also gave a Drug uptake [7] of 4, a Drug uptake [8] of 2.82 and a Drug uptake [9] of 2.82. The Drug uptake [10] was 2.08, the Drug uptake [11] was 2.11 and the Drug uptake [12] was 2.42. For the same compound, the Drug uptake [13] was 2.64, the Drug uptake [14] was 2.84 and the Drug uptake [15] was 2.56. It also gave a Drug uptake [16] of 2.29, a Ratio [17] of 0.8 and a Drug uptake (Putamen [18]) of 3.61. It also gave a Drug uptake (Putamen [19]) of 3.05, a Ratio [20] of 0.4 and a Ratio [21] of 0.7. The Ratio [22] was 0.9, the Ratio [23] was 1 and the Drug uptake (Midbrain [24]) was 4.45. The Drug uptake (Midbrain [25]) was 3.69, the Drug uptake (Pons [26]) was 4.5 and the Drug uptake (Pons [27]) was 4.34. It also gave a Drug uptake [28] of 2.3, a Drug uptake [29] of 1.96 and a Ratio [30] of 1.3. The Drug uptake (Pons [31]) was 3.82, the Drug uptake (Pons [32]) was 4.08 and the Drug uptake (Pons [33]) was 3.31. It also gave a Drug uptake (Medulla [34]) of 5.06, a Ratio [35] of 1.5 and a Drug uptake (Medulla [36]) of 4.24. For the same compound, the logD [37] was 1.64, the Ratio [38] was 1.6 and the Drug uptake [39] was 1.12. The Drug uptake [40] was 2.5, the Drug uptake [41] was 4.74 and the Drug uptake [42] was 4.08. For the same compound, the Drug uptake [43] was 3.87, the Drug uptake [44] was 3.6 and the Drug uptake [45] was 2.37. It also gave a Drug uptake [46] of 2.37, a Ratio [47] of 0.8 and a Drug uptake (Caudate [48]) of 1.55. The Drug uptake (Caudate [49]) was 3.68, the Drug uptake (Caudate [50]) was 3.9 and the Drug uptake (Caudate [51]) was 4.05. For the same compound, the Drug uptake (Caudate [52]) was 3.51, the Drug uptake (Putamen [53]) was 0.27 and the Drug uptake (Putamen [54]) was 0.84. It also gave a Ratio [55] of 0.8, a Drug uptake (Thalamus [56]) of 4.46 and a Drug uptake (Putamen [57]) of 4.08. It also gave a Drug uptake (Putamen [58]) of 4.95, a Drug uptake (Putamen [59]) of 4.92 and a Drug uptake (Thalamus [60]) of 4.76. The Drug uptake (Thalamus [61]) was 3.93, the Drug uptake (Thalamus [62]) was 2.78 and the Drug uptake (Midbrain [63]) was 4.45. The Drug uptake (Midbrain [64]) was 5.01, the Drug uptake (Midbrain [65]) was 4.77 and the Drug uptake (Midbrain [66]) was 4.82. For the same compound, the Ratio [67] was 1.4.
